Reference: BindingDB's records for doi:10.1016/s0969-2126(98)00113-0 (University of Texas At Dallas, 1998)

Experiments:
[1] = target: Mitogen-activated protein kinase 1 (Rattus norvegicus, UniProt P63086); assay: Kinase Inhibition Assay; details: pH 7.5; 37 °C
[2] = target: Mitogen-activated protein kinase 14 (Homo sapiens, UniProt Q16539); assay: Kinase Inhibition Assay; details: pH 7.5; 37 °C
Sequence of Mitogen-activated protein kinase 14 (Q16539 whole entry): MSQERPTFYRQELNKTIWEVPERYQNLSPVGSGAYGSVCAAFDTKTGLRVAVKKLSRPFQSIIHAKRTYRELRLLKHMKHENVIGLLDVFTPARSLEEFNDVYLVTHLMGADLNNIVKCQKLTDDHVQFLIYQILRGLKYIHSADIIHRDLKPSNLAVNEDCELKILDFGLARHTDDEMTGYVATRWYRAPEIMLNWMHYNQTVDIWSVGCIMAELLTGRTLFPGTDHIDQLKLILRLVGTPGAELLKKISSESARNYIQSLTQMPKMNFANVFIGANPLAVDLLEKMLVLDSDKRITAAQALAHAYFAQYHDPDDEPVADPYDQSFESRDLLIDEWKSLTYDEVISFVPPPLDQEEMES

Sequence of Mitogen-activated protein kinase 1 (P63086 whole entry): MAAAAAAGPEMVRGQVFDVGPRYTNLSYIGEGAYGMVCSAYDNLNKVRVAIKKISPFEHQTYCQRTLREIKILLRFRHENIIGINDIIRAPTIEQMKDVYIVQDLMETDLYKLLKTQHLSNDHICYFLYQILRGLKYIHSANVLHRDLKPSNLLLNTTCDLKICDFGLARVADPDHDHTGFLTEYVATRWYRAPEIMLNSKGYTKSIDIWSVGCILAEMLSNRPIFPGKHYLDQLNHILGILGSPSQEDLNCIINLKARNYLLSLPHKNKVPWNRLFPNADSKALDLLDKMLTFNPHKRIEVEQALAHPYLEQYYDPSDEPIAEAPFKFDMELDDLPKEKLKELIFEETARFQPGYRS

| SMILES | IC50 [1] | IC50 [2] |
| --- | --- | --- |
| C[S+]([O-])c1ccc(-c2nc(-c3ccncc3)c(-c3ccc(F)cc3)[nH]2)cc1 (stereo not drawn) [4-{4-(4-fluorophenyl)-2-[4-(methylsulfinyl)phenyl]-1H-imidazol-5-yl}pyridine] | > 1000 µM |  |
| Cn1cnc2c(NCc3ccccc3)nc(NCCO)nc21 [2,6,9-Trisubstituted purine deriv. 26] | 27 µM | > 100 µM |
